Assay results as given in patent publication US10035800B2 (AbbVie Inc., priority 2013, dated 2018).
pEC50, pKi: −log10 of the molar value.

Columns and labels:
BRD4 (BDI_K57-E168) = target: T1, BRD4 (BDI_K57-E168) (Homo sapiens, UniProt O60885); assay: TR-FRET bromodomain binding assay, first bromodomain of BRD4; settings: 100 nM probe
T1 construct: BD1: amino acids K57-E168; made in house
Summary of the method: (§1)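 His-tagged BRD4 bromodomain (8 nM) was incubated with Eu-anti-His antibody (1 nM) and an Alexa647-labelled BET-inhibitor probe (100 nM for BDI, 30 nM for BDII) in pH 6.0 phosphate buffer with 2% DMSO for 1 h at room temperature. TR-FRET ratio was read, IC50 fitted by 4-parameter logistic, then converted to Ki.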

[1] = test system: breast cancer cell line MX-1; assay: MX-1 cell line proliferation assay; format: cell-based; settings: MX-1 cells, 3-day proliferation assay, Cell Titer Glo; read-out: Cellular proliferation: EC50
Description: MX-1 Cell Line Proliferation Assay
The impact of compounds of the Examples on cancer cell proliferation was determined using the breast cancer cell line MX-1 (ATCC) in a 3-day proliferation assay and the data are reported in Table 1. MX-1 cells were maintained in RPMI 1640 medium (Sigma) supplemented with 10% FBS at 37 C.° and an atmosphere of 5% CO2. For compound testing, MX-1 cells were plated in 96-well black bottom plates at a density of 5000 cells/well in 90 μL of culture media and incubated at 37° overnight to allow cell adhesion and spreading. Compound dilution series were prepared in DMSO via a 3-fold serial dilution from 3 mM to 0.1 μM. The DMSO dilution series were then diluted 1:100 in phosphate buffered saline, and 10 μL of the resulted solution were added to the appropriate wells of the MX-1 cell plate. The final compound concentrations in the wells were 3, 1, 0.3, 0.1, 0.03, 0.01, 0.003, 0.001, 0.0003, and 0.0001 μM or 1, 0.3, 0.1, 0.03, 0.01, 0.003, 0.001, 0.0003, 0.0001, and 0.00003 μM.
Luminescence readings from the Cell Titer Glo assay were normalized to the DMSO treated cells and analyzed using the GraphPad Prism software with sigmoidal curve fitting to obtain EC50s. The minimum significant ratio (MSR) was determined to evaluate assay reproducibility (Eastwood et al., (2006) J Biomol Screen, 11: 253-261). The overall MSR was determined to be 2.1 and a moving MSR (last six run MSR overtime) has been <2.

BRD4 (BDII_E352-M457) = target: T2, BRD4 (BDII_E352-M457) (Homo sapiens, UniProt O60885); assay: TR-FRET bromodomain binding assay, second bromodomain of BRD4; settings: 30 nM probe
T2 construct: protocol; made in house
Summary of the method: as §1

[2] = TR-FRET assay protocol G (compound 0.92 μM-15 pM)
[3] = TR-FRET assay protocol E (compound 9.19 μM-150 pM)

Compound	pKi (BRD4 (BDI_K57-E168); [2])	pEC50 [1]	pKi (BRD4 (BDII_E352-M457); [2])	pKi (BRD4 (BDI_K57-E168); [3])	pKi (BRD4 (BDII_E352-M457); [3])
CCCNC(=O)N1Cc2c[nH]c3c(=O)n(C)cc(c23)-c2cc(CS(C)(=O)=O)ccc21 [Example 64, 10-methyl-7-((methylsulfonyl)methyl)-11-oxo-N-propyl-10,11-dihydro-1H-1,4,10-triazadibenzo[cd,f]azulene-4(3H)-carboxamide]	8.57	7.07	8.55	–	–
Cn1cc2c3c(c[nH]c3c1=O)CN(c1cccnc1)c1ccc(CS(C)(=O)=O)cc1-2 [Example 244, 10-methyl-7-((methylsulfonyl)methyl)-4-(pyridin-3-yl)-3,4-dihydro-1H-1,4,10-triazadibenzo[cd,f]azulen-11(10H)-one]	9.37	8.67	8.99	–	–
Cn1cc2c3c(c[nH]c3c1=O)C(CCCCCCO)N(c1ccc(F)cc1F)c1ccc(CS(C)(=O)=O)cc1-2 (stereo not drawn) [Example 136, 4-(2,4-difluorophenyl)-3-(6-hydroxyhexyl)-10-methyl-7-((methylsulfonyl)methyl)-3,4-dihydro-1H-1,4,10-triazadibenzo[cd,f]azulen-11(10H)-one]	7.88	7.31	8.88	–	–
4-(2,4-difluorophenyl)-10-methyl-7-((methylsulfonyl)methyl)-11-oxo-3,4,10,11-tetrahydro-1H-1,4,10-triazadibenzo[cd,f]azulene-3-carboxamide [Example 141]	7.68	6.50	7.96	–	–
Cn1cc2c3c(c(C#N)[nH]c3c1=O)CN(c1ccc(F)cc1F)c1ccc(CS(C)(=O)=O)cc1-2 [Example 210, 4-(2,4-difluorophenyl)-10-methyl-7-((methylsulfonyl)methyl)-11-oxo-3,4,10,11-tetrahydro-1H-1,4,10-triazadibenzo[cd,f]azulene-2-carbonitrile]	8.76	7.88	9.10	–	–
10-methyl-7-((methylsulfonyl)methyl)-4-(pyrimidin-4-yl)-3,4-dihydro-1H-1,4,10-triazadibenzo[cd,f]azulen-11(10H)-one [Example 259]	8.47	7.72	8.52	–	–
CC#CCOC(=O)N1Cc2c[nH]c3c(=O)n(C)cc(c23)-c2cc(CS(C)(=O)=O)ccc21 [Example 98, but-2-yn-1-yl 10-methyl-7-((methylsulfonyl)methyl)-11-oxo-10,11-dihydro-1H-1,4,10-triazadibenzo[cd,f]azulene-4(3H)-carboxylate]	8.63	8.36	8.50	–	–
COC(=O)CCC1c2c[nH]c3c(=O)n(C)cc(c23)-c2cc(CS(C)(=O)=O)ccc2N1CC1CC1 (stereo not drawn) [Example 14, methyl 3-(4-(cyclopropylmethyl)-10-methyl-7-((methylsulfonyl)methyl)-11-oxo-3,4,10,11-tetrahydro-1H-1,4,10-triazadibenzo[cd,f]azulen-3-yl)propanoate]	–	7.84	–	8.16	9.05
COCCC(C)N1Cc2c[nH]c3c(=O)n(C)cc(c23)-c2cc(CS(C)(=O)=O)ccc21 (racemic) [Example 186, 4-(4-methoxybutan-2-yl)-10-methyl-7-((methylsulfonyl)methyl)-3,4-dihydro-1H-1,4,10-triazadibenzo[cd,f]azulen-11(10H)-one]	8.38	–	8.04	–	–
CCc1ccc(CCNC(=O)N2Cc3c[nH]c4c(=O)n(C)cc(c34)-c3cc(CS(C)(=O)=O)ccc32)cc1 [Example 63, N-(4-ethylphenethyl)-10-methyl-7-((methylsulfonyl)methyl)-11-oxo-10,11-dihydro-1H-1,4,10-triazadibenzo[cd,f]azulene-4(3H)-carboxamide]	7.09	–	7.13	–	–
Cn1cc2c3c(c[nH]c3c1=O)C(C(=O)NCCCc1ccccc1)N(c1ccc(F)cc1F)c1ccc(CS(C)(=O)=O)cc1-2 (racemic) [Example 160, 4-(2,4-difluorophenyl)-10-methyl-7-((methylsulfonyl)methyl)-11-oxo-N-(3-phenylpropyl)-3,4,10,11-tetrahydro-1H-1,4,10-triazadibenzo[cd,f]azulene-3-carboxamide]	6.90	–	6.93	–	–
Cn1cc2c3c(c[nH]c3c1=O)CN(C1CCC(N)CC1)c1ccc(S(C)(=O)=O)cc1-2 (stereo not drawn) [Example 171, 4-((trans)-4-aminocyclohexyl)-10-methyl-7-(methylsulfonyl)-3,4-dihydro-1H-1,4,10-triazadibenzo[cd,f]azulen-11(10H)-one]	7.79	–	7.53	–	–
Cn1cc2c3c(c[nH]c3c1=O)CN(C(=O)OCCCCCl)c1ccc(CS(C)(=O)=O)cc1-2 [Example 89, 4-chlorobutyl 10-methyl-7-((methylsulfonyl)methyl)-11-oxo-10,11-dihydro-1H-1,4,10-triazadibenzo[cd,f]azulene-4(3H)-carboxylate]	8.24	–	8.34	–	–
CC(C)C(=O)N1Cc2c[nH]c3c(=O)n(C)cc(c23)-c2cc(CS(C)(=O)=O)ccc21 [Example 54, 4-isobutyryl-10-methyl-7-((methylsulfonyl)methyl)-3,4-dihydro-1H-1,4,10-triazadibenzo[cd,f]azulen-11(10H)-one]	8.23	–	8.84	–	–
Cn1cc2c3c(c[nH]c3c1=O)CN(C(=O)c1ccc3ccccc3c1)c1ccc(CS(C)(=O)=O)cc1-2 [Example 81, 4-(2-naphthoyl)-10-methyl-7-((methylsulfonyl)methyl)-3,4-dihydro-1H-1,4,10-triazadibenzo[cd,f]azulen-11(10H)-one]	7.29	–	7.49	–	–
Cn1cc(-c2[nH]c3c(=O)n(C)cc4c3c2CN(c2ccc(F)cc2)c2ccc(CS(C)(=O)=O)cc2-4)cn1 [Example 276, 4-(4-fluorophenyl)-10-methyl-2-(1-methyl-1H-pyrazol-4-yl)-7-((methylsulfonyl)methyl)-3,4-dihydro-1H-1,4,10-triazadibenzo[cd,f]azulen-11(10H)-one]	8.92	–	8.93	–	–
Cn1cc2c3c(c[nH]c3c1=O)CN(C(=O)OCC(C)(C)C)c1ccc(CS(C)(=O)=O)cc1-2 [Example 92, neopentyl 10-methyl-7-((methylsulfonyl)methyl)-11-oxo-10,11-dihydro-1H-1,4,10-triazadibenzo[cd,f]azulene-4(3H)-carboxylate]	8.43	–	8.25	–	–
Cn1cc2c3c(c[nH]c3c1=O)C(C(=O)NC1(CO)CC1)N(c1ccc(F)cc1F)c1ccc(CS(C)(=O)=O)cc1-2 (racemic) [Example 166, 4-(2,4-difluorophenyl)-N-(1-(hydroxymethyl)cyclopropyl)-10-methyl-7-((methylsulfonyl)methyl)-11-oxo-3,4,10,11-tetrahydro-1H-1,4,10-triazadibenzo[cd,f]azulene-3-carboxamide]	7.22	–	7.13	–	–
CN1CCC(N2Cc3c[nH]c4c(=O)n(C)cc(c34)-c3cc(CS(C)(=O)=O)ccc32)C1 (stereo not drawn) [Example 187]	8.24	–	7.30	–	–
Cn1cc(-c2[nH]c3c(=O)n(C)cc4c3c2CN(c2ccccc2)c2ccc(S(C)(=O)=O)cc2-4)cn1 [Example 274, 10-methyl-2-(1-methyl-1H-pyrazol-4-yl)-7-(methylsulfonyl)-4-phenyl-3,4-dihydro-1H-1,4,10-triazadibenzo[cd,f]azulen-11(10H)-one]	8.55	–	8.81	–	–
